Results taken from PMC9632963, “Preclinical characterization and phase I clinical trial of CT053PTSA targets MET, AXL, and VEGFR2 in patients with advanced solid tumors” (Frontiers in Immunology, 2022).

Columns and labels:
MNK2 = MNK2 (Homo sapiens, UniProt Q9HBH9); experiment: Kinase inhibition assay (LANCE or HTRF); format: biochemical; details: ATP at Km
Experimental: (§1) The IC50 values were determined by measuring phosphorylation of peptide substrate poly at ATP concentrations at the Km.

SNU-484 = experiment: Cell proliferation assay (CellTiter-Glo, 72 hours); format: cell-based; details: Homo sapiens, read-out: IC50 anti-proliferative
EphA8 = EphA8 (Homo sapiens, UniProt P29322); experiment: Kinase inhibition assay (LANCE or HTRF); format: biochemical; details: ATP at Km
Experimental: as §1

HS746T = experiment: Cell proliferation assay (CellTiter-Glo, 72 hours); format: cell-based; details: Homo sapiens, read-out: IC50 anti-proliferative
Experimental: (§2) Human gastric tumor cell lines with high MET expression levels, namely, the GTL-16, MKN45, SNU638, Hs746T, SNU-620, and SNU-5 cell lines, were used in the assay. These cell lines were obtained from American Type Culture Collection (ATCC), Japanese Collection of Research Bioresources (JCRB), Shanghai Institutes of Biological Sciences, CAS (SIBS), Korean Cell Line Bank (KCLB) or National Institutes of Health (NIH). […] Cell viability was measured after 72 hours using a CellTiter-Glo Luminescent Cell Viability Assay Kit (Promega, WI, USA) according to the manufacturer’s instructions.

Fer = Fer (Homo sapiens, UniProt P16591); experiment: Kinase inhibition assay (LANCE or HTRF); format: biochemical; details: ATP at Km
Experimental: as §1

[1] = Phase I trial: clinical pharmacokinetics in plasma; format: in vivo, human
Experimental: A clinical pharmacokinetic study of CT053PTSA was performed for both single doses and multiple doses. Blood samples were collected from each subject at prespecified times before and after single-dose administration (systemic blood samples: before treatment and 0.5, 1, 2, 3, 4, 5, 8, 12, 24, 36, 48, 72, 120 and 168 hours after treatment) and during multiple dosing (cycle 1 before treatment on Days 8, 15 and 22, as well as systemic blood samples on Day 28). […]
Statistical analysis of CT053-treated tumors versus vehicle-treated tumors or versus nontreated tumors was performed by repeated-measures ANOVA. The data from the tumor xenograft models were expressed as the means ± standard error of the mean (SEM) and were plotted as a function of time. Noncompartmental pharmacokinetic analysis was performed using Phoenix WinNonlin Version 6.2.1 (Certara Inc., NJ, USA). Demographics and laboratory results of all the subjects were summarized using descriptive statistics. The pharmacokinetic parameters Tmax and T1/2 were shown as the median (min, max) and mean ± SD, respectively. A two-sided P < 0.05 was considered to indicate statistical significance. Statistical analysis was performed by using GraphPad Prism 5.0 (GraphPad Prism, RRID : SCR_002798) and SPSS software version 19.0 (SPSS, RRID : SCR_002865).

TXK = TXK (Homo sapiens, UniProt P42681); experiment: Kinase inhibition assay (LANCE or HTRF); format: biochemical; details: ATP at Km
Experimental: as §1

MKN74 = experiment: Cell proliferation assay (CellTiter-Glo, 72 hours); format: cell-based; details: Homo sapiens, MKN-74, read-out: IC50 anti-proliferative
Tyro3 = Tyro3 (Homo sapiens, UniProt Q06418); experiment: Kinase inhibition assay (LANCE or HTRF); format: biochemical; details: ATP at Km
Experimental: as §1

LnyA = LnyA (Homo sapiens, UniProt P07948); experiment: Kinase inhibition assay (LANCE or HTRF); format: biochemical; details: ATP at Km
Experimental: as §1

FRK = FRK (Homo sapiens, UniProt P42685); experiment: Kinase inhibition assay (LANCE or HTRF); format: biochemical; details: ATP at Km
Experimental: as §1

EphA6 = EphA6 (Homo sapiens, UniProt Q9UF33); experiment: Kinase inhibition assay (LANCE or HTRF); format: biochemical; details: ATP at Km
Experimental: as §1

HUVECs = experiment: Endothelial cell tubule formation assay, HGF-induced; format: cell-based; details: Homo sapiens, HUVEC, HGF 45 ng/ml, 8 hours
Description: Then, after staining with Calcein AM (ThermoFisher, CA, USA), images of tubule formation were captured, and the total tube area was quantified with ImageXpress HCS (Molecular Devices, CA, USA).

NCI-N87 = experiment: Cell proliferation assay (CellTiter-Glo, 72 hours); format: cell-based; details: Homo sapiens, read-out: IC50 anti-proliferative
Experimental: (§3) These cell lines were obtained from American Type Culture Collection (ATCC), Japanese Collection of Research Bioresources (JCRB), Shanghai Institutes of Biological Sciences, CAS (SIBS), Korean Cell Line Bank (KCLB) or National Institutes of Health (NIH). […] Cell viability was measured after 72 hours using a CellTiter-Glo Luminescent Cell Viability Assay Kit (Promega, WI, USA) according to the manufacturer’s instructions.

RON = RON (Homo sapiens, UniProt Q04912); experiment: Kinase inhibition assay (LANCE or HTRF); format: biochemical; details: ATP at Km
Experimental: as §1

EphA4 = EphA4 (Homo sapiens, UniProt P54764); experiment: Kinase inhibition assay (LANCE or HTRF); format: biochemical; details: ATP at Km
Experimental: as §1

KATOIII = experiment: Cell proliferation assay (CellTiter-Glo, 72 hours); format: cell-based; details: Homo sapiens, KATO III, read-out: IC50 anti-proliferative
Experimental: as §3

SNU-16 = experiment: Cell proliferation assay (CellTiter-Glo, 72 hours); format: cell-based; details: Homo sapiens, read-out: IC50 anti-proliferative
Experimental: as §2

FLT3 = FLT3 (Homo sapiens, UniProt P36888); experiment: Cellular kinase phosphorylation assay (sandwich ELISA), FLT3-wt-MEFs, FLT3-ligand stimulated; format: cell-based; design: MEFs expressing full-length human FLT3 (FLT3-wt-MEFs); expressed in transfected cells; host or cells: mouse embryonic fibroblasts (MEFs); details: FLT3-ligand 50 ng/ml
Chain of FLT3 (P36888 27-993): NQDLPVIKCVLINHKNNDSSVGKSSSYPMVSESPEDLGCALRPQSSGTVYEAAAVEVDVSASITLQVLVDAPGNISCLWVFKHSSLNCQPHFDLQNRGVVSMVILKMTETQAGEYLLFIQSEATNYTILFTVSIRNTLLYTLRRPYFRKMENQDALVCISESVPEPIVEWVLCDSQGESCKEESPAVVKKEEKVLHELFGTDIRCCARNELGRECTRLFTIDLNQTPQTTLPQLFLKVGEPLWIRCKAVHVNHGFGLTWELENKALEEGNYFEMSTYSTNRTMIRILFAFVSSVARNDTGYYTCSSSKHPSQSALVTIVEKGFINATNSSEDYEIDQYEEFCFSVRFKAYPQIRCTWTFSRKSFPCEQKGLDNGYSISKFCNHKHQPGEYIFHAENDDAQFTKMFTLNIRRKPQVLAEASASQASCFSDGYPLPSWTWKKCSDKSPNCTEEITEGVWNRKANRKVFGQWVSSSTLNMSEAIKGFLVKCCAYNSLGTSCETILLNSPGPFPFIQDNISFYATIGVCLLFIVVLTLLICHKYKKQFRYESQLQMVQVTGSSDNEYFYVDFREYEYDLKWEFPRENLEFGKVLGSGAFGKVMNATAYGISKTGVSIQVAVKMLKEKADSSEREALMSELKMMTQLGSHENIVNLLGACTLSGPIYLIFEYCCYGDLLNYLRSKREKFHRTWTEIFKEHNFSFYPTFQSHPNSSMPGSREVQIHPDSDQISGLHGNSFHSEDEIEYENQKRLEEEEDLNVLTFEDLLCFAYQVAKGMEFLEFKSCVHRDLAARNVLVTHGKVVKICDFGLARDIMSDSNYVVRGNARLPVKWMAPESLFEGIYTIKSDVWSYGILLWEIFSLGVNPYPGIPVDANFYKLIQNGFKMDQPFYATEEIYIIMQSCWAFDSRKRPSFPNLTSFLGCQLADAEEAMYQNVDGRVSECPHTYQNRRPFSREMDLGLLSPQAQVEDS
Experimental: Phosphorylation of the receptors MET, AXL, VEGFR2, and FLT3 was assessed in the transgenic human MKN45 gastric tumor cell line overexpressing MET, mouse embryonic fibroblasts (MEFs) expressing full-length human AXL (AXL-MEFs), human umbilical vein endothelial cells (HUVECs) overexpressing VEGFR-2, and MEFs expressing full-length human FLT3 (FLT3-wt-MEFs), respectively. […] Then, HUVECs and FLT3-wt-MEFs were stimulated with the ligands VEGF-A (100 ng/ml, for 3 min) and FLT3-ligand (50 ng/ml, for 5 min). MKN45 (overexpressing MET) and AXL-MEFs cells had no stimulation. […] Raw data were converted into percent substrate phosphorylation relative to high controls, which were set to 100%.

Chain of TXK (P42681 whole entry): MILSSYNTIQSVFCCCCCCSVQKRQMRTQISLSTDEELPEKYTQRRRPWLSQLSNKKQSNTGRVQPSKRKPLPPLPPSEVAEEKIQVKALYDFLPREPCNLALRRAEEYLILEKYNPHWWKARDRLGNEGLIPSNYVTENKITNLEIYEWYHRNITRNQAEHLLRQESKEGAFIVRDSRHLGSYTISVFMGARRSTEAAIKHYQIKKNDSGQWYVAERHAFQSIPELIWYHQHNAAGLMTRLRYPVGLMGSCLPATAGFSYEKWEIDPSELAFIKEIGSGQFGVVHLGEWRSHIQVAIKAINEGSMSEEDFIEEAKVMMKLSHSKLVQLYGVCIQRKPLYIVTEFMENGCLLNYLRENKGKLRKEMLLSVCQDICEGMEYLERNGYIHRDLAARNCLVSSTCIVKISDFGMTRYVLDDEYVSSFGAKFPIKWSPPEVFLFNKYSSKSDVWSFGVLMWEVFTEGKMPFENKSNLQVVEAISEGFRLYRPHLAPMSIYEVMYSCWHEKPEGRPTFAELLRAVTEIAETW
Chain of EphA6 (Q9UF33 23-1036): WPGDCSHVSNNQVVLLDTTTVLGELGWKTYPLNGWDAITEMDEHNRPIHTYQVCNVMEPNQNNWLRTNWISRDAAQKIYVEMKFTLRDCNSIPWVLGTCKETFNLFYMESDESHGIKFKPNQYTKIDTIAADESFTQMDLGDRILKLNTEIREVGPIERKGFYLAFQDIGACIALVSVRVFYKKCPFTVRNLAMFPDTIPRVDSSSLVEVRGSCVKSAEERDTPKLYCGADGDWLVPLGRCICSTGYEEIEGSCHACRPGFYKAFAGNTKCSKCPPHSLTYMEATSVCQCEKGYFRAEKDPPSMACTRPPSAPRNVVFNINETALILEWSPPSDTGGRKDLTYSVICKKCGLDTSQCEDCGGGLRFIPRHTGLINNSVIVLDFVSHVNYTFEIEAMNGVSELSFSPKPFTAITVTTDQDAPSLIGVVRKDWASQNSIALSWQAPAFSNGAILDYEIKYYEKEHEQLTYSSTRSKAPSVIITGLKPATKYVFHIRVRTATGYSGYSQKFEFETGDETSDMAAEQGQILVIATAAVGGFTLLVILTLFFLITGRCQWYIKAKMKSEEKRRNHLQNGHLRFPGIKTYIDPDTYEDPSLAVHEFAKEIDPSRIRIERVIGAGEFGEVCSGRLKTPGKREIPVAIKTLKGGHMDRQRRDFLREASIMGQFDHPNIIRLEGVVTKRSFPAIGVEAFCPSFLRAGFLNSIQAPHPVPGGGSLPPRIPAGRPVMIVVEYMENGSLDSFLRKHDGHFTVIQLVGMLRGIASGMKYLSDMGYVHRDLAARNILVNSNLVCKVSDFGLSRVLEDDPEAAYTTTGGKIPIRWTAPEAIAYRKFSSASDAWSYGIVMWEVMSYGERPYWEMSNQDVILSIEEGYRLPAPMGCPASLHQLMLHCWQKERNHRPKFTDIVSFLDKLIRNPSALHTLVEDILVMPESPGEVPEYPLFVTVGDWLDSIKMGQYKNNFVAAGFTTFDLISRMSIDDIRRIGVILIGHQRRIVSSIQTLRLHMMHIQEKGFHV
Chain of EphA8 (P29322 28-1005): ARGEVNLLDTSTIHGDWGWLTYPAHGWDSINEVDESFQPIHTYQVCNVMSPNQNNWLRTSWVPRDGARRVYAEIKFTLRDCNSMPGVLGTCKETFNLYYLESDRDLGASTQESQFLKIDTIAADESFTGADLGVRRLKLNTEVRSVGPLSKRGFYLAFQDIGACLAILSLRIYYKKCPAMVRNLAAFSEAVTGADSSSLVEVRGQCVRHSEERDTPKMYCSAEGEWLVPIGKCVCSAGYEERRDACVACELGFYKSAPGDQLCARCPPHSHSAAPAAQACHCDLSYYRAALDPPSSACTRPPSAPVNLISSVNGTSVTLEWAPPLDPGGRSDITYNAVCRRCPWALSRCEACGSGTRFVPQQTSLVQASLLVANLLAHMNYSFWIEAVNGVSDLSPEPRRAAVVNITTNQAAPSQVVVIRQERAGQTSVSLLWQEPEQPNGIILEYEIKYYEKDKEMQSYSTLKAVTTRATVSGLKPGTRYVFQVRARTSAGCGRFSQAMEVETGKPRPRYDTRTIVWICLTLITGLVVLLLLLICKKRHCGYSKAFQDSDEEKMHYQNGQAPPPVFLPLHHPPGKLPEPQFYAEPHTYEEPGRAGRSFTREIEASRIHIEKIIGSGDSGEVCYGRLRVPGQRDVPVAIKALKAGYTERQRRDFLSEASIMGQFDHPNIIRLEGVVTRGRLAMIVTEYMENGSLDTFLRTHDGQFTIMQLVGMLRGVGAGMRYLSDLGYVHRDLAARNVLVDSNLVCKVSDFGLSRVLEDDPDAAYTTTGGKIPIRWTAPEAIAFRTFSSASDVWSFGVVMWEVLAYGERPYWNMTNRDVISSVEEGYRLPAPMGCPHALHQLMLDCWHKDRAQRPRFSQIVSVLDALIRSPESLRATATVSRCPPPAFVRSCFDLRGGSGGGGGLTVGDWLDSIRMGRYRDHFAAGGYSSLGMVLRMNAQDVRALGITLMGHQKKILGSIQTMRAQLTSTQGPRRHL
Chain of EphA4 (P54764 20-986): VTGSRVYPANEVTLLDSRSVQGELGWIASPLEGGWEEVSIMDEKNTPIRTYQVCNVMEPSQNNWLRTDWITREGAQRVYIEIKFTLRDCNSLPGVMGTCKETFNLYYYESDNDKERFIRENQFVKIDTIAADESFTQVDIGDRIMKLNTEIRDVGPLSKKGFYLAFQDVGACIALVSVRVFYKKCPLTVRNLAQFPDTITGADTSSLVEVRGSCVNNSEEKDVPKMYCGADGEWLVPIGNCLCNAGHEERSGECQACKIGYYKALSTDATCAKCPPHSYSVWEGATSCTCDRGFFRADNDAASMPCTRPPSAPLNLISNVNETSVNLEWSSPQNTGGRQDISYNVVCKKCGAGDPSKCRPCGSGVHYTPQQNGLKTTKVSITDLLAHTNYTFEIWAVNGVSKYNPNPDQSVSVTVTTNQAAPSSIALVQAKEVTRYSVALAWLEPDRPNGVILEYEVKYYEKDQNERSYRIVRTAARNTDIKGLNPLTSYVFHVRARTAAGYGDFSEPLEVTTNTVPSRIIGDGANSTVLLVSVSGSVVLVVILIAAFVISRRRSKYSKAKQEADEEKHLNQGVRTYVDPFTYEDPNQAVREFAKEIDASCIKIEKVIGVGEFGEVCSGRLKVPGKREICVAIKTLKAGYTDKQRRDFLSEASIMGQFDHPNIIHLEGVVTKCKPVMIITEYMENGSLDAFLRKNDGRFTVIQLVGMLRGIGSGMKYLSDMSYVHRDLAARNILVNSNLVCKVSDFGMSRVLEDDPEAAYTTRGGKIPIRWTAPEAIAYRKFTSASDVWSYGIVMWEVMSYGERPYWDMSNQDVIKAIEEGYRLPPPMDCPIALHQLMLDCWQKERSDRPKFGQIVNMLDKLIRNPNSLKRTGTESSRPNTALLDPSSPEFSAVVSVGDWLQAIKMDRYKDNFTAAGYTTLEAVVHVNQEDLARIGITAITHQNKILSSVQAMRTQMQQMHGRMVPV
Chain of LnyA (P07948 whole entry): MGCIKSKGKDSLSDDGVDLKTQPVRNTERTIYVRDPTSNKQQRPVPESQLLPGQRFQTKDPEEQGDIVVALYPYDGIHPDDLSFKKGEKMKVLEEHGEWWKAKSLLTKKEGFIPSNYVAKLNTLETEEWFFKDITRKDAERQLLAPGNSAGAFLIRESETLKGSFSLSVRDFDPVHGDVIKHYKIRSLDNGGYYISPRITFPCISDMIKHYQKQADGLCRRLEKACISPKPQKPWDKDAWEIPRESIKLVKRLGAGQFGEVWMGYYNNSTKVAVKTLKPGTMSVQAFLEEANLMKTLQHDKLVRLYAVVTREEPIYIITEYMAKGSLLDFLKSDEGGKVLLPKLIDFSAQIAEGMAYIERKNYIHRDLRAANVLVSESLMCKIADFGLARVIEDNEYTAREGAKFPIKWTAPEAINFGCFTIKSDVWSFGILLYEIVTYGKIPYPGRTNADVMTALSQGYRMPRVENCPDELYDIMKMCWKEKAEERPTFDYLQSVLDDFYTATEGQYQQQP

## Cc1c(C(=O)Nc2ccc(Oc3ccnc4cc(OCC(C)(C)O)ccc34)c(F)c2)c(=O)n(-c2ccccc2)n1C [CT053]
MNK2
  IC50: 55 nM
SNU-484
  IC50: 8.5 µM
EphA8
  IC50: 620 nM
HS746T
  IC50: 140 nM
Fer
  IC50: 330 nM
[1]; multiple doses, 60-100 mg
  PK profile versus dose: linear PK profile
[1]; single oral dose, 15 to 150 mg
  PK profile versus dose: general linear PK profile
TXK
  IC50: 270 nM
MKN74
  IC50: 6.88 µM
Tyro3
  IC50: 150 nM
LnyA
  IC50: 240 nM
FRK
  IC50: 520 nM
EphA6
  IC50: 81 nM
HUVECs; read-out: IC50, percentage area of tube formation (+ HGF)
  IC50: 310 nM
HUVECs; read-out: IC90, Tube Area % Effect (+ HGF)
  IC90: > 3000 nM
NCI-N87
  IC50: > 10 µM
RON
  IC50: 160 nM
EphA4
  IC50: 370 nM
KATOIII
  IC50: > 10 µM
SNU-16
  IC50: > 10 µM
FLT3
  IC50: 1.5 nM
